Measured values as given in patent US10670605B2, “Cysteine reactive probes and uses thereof” (The Scripps Research Institute, priority 2015, dated 2020).

How the values were obtained:
[1] = biological target: T1, IMPDH2 (C140) (Homo sapiens, UniProt P12268); experiment: Click probe 18 labeling of recombinant IMPDH2 and its competition; type: binding; details: 500 μM of each nucleotide
T1 construct: Full length cDNAs encoding for IDH1 (Open Biosystems, Clone ID: 3880331) and IMPDH2 (Open Biosystems, Clone ID: 3447994); His6 (C); made in house; host or cells: E. coli BL21(DE3)

[2] = tested on: protein targets in MDA-MB-231 cells; experiment: Whole protein capture with click probes (SILAC proteomics), native vs heat denatured; type: binding, human; details: proteins liganded by parent fragment (3 / 14) and enriched by click probe (19 / 18)
Protocol: Protein enrichment by 18 and 19 was measured by whole protein capture of isotopically-SILAC labeled MDA-MB-231 cells using quantitative (SILAC) proteomics.

[3] = biological target: T2, pro-CASP8 (Homo sapiens, UniProt Q14790, D374A/D384A); experiment: Click probe 61 labeling of pro-CASP8 and its competition; type: binding
T2 construct: a truncated CASP8 (residues 217-479) without the CARD domain; His6 (C); made in house; host or cells: E. coli BL21(DE3)pLysS
T2 sequence (Q14790 217-479 D374A/D384A): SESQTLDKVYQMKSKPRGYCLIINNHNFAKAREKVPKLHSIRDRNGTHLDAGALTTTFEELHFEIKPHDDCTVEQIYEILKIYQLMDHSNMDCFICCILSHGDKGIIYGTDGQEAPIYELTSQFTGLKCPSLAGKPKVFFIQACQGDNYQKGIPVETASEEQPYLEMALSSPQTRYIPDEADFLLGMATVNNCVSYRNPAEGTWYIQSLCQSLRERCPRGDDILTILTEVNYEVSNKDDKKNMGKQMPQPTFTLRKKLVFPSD

[4] = biological target: CASP8 C360 (Q14790) (Homo sapiens, UniProt Q14790); experiment: Competitive isoTOP-ABPP, cell lysates; type: binding
CASP8 C360 (Q14790), sequence (Q14790 whole entry, the tested form may be a part): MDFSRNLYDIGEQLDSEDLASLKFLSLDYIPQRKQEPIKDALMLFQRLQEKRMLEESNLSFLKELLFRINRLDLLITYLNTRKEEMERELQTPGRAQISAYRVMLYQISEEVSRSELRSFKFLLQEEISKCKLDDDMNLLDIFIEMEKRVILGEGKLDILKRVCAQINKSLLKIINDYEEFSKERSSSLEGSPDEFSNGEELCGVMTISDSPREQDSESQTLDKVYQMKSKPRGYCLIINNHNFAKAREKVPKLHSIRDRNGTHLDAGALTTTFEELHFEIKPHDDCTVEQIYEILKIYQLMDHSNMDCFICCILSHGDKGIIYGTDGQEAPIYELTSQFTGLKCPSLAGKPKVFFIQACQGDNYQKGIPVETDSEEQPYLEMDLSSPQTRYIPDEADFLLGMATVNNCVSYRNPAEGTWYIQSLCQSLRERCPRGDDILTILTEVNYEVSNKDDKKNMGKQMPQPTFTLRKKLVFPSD
Protocol: (§1) TEV digests were pressure loaded onto a 250 μm (inner diameter) fused silica capillary column packed with C18 resin (Aqua 5 μm, Phenomenex). The samples were analyzed by multidimensional liquid chromatography tandem mass spectrometry (MudPIT), using an LTQ-Velos Orbitrap mass spectrometer (Thermo Scientific) coupled to an Agilent 1200-series quaternary pump. The peptides were eluted onto a biphasic column with a 5 μm tip (100 μm fused silica, packed with C18 (10 cm) and bulk strong cation exchange resin (3 cm, SCX, Phenomenex,)) in a 5-step MudPIT experiment, using 0%, 30%, 60%, 90%, and 100% salt bumps of 500 mM aqueous ammonium acetate and using a gradient of 5-100% buffer B in buffer A (buffer A: 95% water, 5% acetonitrile, 0.1% formic acid; buffer B: 5% water, 95% acetonitrile, 0.1% formic acid) as has been described in Weerapana et al. Nat Protoc 2:1414-1425 (2007). Data was collected in data-dependent acquisition mode with dynamic exclusion enabled (20 s, repeat of 2). One full MS (MS1) scan (400-1800 m/z) was followed by 30 MS2 scans (ITMS) of the nth most abundant ions.
(§2) The ratios of heavy/light for each unique peptide (DMSO/compound treated; isoTOP-ABPP ratios, R values) were quantified with in-house CIMAGE software, using default parameters (3 ms s per peak and signal to noise threshold 2.5). Site-specific engagement of electrophilic fragments was assessed by blockade of IA-alkyne probe labeling. […] Ratios for unique peptide entries were calculated for each experiment; overlapping peptides with the same modified cysteine (e.g. different charge states, MudPIT chromatographic steps or tryptic termini) were grouped together and the median ratio was reported as the final ratio (R). The peptide ratios reported by CIMAGE were further filtered to ensure the removal or correction of low quality ratios in each individual dataset. The quality filters applied were the following: removal of half tryptic peptides; for ratios with high standard deviations from the median (90% of the median or above) the lowest ratio was taken instead of the median; removal of peptides with R=20 and only a single ms2 event triggered during the elution of the parent ion; manual annotation of all the peptides with ratios of 20, removing any peptides with low-quality elution profiles that remained after the previous curation steps. Proteome reactivity values for individual fragments were computed as the percentage of the total quantified cysteine-containing peptides with R values≥4 (defined as liganded cysteines) for each replicate experiment and the final proteome reactivity value was calculated as the mean for all replicate experiments for each fragment from both MDA-MB-231 and Ramos cellular proteomes.
(§3) Biological replicates of the same compound and cell-line were averaged if the standard deviation was below 60% of the mean; otherwise the lowest value of the ratio set was taken.

[5] = biological target: T3, ACAT1 C413 (P24752) (Homo sapiens, UniProt P24752); experiment: Competitive isoTOP-ABPP, cell lysates; type: binding; details: 500 μm, in-vitro_ramos_231
T3 sequence (P24752 34-427): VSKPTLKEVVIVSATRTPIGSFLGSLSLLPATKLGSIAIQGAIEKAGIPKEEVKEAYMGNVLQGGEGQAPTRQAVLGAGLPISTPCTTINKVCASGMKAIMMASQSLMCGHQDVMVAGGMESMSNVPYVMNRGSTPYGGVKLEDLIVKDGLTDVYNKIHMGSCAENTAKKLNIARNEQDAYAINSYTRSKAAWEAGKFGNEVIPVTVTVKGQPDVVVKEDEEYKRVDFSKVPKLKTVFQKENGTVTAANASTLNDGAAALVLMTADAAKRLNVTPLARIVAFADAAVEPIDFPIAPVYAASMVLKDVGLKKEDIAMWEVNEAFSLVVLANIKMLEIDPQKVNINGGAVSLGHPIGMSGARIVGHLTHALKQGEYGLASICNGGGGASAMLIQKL

[6] = biological target: T4, ACAT1 C119 (P24752) (Homo sapiens, UniProt P24752); experiment: Competitive isoTOP-ABPP, cell lysates; type: binding; details: 500 μm, in-vitro_ramos_231
T4 sequence (P24752 34-427): T3 sequence (P24752 34-427)

[7] = biological target: T5, ACAT1 C196 (P24752) (Homo sapiens, UniProt P24752); experiment: Competitive isoTOP-ABPP, cell lysates; type: binding; details: 500 μm, in-vitro_ramos_231
T5 sequence (P24752 34-427): T3 sequence (P24752 34-427)

[8] = biological target: T6, ACAT1 C126 (P24752) (Homo sapiens, UniProt P24752); experiment: Competitive isoTOP-ABPP, cell lysates; type: binding; details: 500 μm, in-vitro_ramos_231
T6 sequence (P24752 34-427): T3 sequence (P24752 34-427)

[9] = biological target: MLTK C22 (Q9NYL2) (Homo sapiens, UniProt Q9NYL2); experiment: Competitive isoTOP-ABPP, cell lysates; type: binding; details: 500 μm, in-vitro_ramos_231
MLTK C22 (Q9NYL2), sequence (Q9NYL2 whole entry): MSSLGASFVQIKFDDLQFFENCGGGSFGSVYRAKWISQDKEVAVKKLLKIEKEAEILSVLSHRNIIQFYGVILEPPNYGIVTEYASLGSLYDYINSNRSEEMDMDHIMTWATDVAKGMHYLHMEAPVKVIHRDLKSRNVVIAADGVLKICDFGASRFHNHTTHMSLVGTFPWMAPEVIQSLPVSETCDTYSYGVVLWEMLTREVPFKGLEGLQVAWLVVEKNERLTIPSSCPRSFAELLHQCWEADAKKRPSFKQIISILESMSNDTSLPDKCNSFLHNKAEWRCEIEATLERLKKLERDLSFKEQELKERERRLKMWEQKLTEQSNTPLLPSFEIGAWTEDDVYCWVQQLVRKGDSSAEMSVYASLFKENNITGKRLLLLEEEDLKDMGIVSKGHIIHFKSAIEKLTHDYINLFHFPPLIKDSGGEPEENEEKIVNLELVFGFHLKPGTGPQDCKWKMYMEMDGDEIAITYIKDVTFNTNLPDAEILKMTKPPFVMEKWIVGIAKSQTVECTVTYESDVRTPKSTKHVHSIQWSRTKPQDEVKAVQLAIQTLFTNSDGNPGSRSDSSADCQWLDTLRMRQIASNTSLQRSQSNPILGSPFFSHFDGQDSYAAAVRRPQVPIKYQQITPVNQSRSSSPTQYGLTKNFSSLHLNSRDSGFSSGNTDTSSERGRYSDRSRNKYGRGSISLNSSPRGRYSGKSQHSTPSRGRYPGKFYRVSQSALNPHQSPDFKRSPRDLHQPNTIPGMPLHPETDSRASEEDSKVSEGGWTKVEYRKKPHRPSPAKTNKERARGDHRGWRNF
Protocol: as §1, §2, §3

[10] = biological target: XPO1 C34 (O14980) (Homo sapiens, UniProt O14980); experiment: Competitive isoTOP-ABPP, cell lysates; type: binding; details: 500 μm, in-vitro_ramos_231
XPO1 C34 (O14980), sequence (O14980 whole entry): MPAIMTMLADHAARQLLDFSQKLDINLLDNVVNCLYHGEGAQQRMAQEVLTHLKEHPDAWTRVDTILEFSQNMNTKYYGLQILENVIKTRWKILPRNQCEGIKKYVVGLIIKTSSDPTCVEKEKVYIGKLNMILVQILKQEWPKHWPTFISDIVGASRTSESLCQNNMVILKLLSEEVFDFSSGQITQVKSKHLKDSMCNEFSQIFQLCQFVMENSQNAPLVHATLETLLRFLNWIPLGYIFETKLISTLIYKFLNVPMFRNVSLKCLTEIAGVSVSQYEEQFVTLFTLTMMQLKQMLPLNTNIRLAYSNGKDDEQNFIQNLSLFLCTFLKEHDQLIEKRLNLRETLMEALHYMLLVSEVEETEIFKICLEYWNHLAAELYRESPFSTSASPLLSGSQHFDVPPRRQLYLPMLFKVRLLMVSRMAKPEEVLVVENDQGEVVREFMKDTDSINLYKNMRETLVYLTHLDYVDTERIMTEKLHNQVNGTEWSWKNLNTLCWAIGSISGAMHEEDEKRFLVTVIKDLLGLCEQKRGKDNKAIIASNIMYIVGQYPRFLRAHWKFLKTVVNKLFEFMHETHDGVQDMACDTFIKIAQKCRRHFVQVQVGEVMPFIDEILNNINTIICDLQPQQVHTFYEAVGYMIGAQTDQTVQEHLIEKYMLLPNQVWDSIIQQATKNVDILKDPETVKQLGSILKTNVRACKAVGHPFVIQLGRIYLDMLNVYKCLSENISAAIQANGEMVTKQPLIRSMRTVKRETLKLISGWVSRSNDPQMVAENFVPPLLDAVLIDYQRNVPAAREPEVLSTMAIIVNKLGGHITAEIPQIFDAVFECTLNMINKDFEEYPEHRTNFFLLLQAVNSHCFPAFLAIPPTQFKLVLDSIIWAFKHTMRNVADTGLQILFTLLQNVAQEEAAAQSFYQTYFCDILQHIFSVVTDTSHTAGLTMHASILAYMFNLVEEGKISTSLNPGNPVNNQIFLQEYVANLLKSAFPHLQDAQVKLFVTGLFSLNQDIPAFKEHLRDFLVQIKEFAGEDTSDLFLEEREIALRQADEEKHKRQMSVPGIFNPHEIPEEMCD
Protocol: as §1, §2, §3

[11] = biological target: STAT3 C259 (P40763) (Homo sapiens, UniProt P40763); experiment: Competitive isoTOP-ABPP, cell lysates; type: binding; details: 500 μm, in-vitro_ramos_231
STAT3 C259 (P40763), sequence (P40763 whole entry): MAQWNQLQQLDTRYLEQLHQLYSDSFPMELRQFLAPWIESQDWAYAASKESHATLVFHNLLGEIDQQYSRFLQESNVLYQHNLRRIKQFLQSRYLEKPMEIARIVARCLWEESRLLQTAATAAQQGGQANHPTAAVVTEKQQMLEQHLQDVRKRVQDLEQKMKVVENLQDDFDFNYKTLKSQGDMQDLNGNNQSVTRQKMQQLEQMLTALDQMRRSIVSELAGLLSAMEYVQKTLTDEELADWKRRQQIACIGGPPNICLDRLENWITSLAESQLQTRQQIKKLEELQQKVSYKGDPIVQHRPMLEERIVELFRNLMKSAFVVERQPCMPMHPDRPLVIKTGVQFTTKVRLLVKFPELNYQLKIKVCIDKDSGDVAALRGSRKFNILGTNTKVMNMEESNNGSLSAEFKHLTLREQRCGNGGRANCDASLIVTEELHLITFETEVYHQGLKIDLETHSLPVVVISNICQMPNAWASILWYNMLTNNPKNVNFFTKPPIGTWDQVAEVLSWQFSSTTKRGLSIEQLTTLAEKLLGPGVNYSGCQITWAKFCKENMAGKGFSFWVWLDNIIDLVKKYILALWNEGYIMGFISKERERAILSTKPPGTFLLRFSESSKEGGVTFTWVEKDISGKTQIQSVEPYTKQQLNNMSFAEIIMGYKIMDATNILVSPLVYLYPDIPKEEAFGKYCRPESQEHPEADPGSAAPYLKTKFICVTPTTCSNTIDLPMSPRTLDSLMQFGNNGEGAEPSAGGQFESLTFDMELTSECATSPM
Protocol: as §1, §2, §3

[12] = biological target: DCUN1D1 C115 (Q96GG9) (Homo sapiens, UniProt Q96GG9); experiment: Competitive isoTOP-ABPP, cell lysates; type: binding; details: 500 μm, in-vitro_ramos_231
DCUN1D1 C115 (Q96GG9), sequence (Q96GG9 whole entry): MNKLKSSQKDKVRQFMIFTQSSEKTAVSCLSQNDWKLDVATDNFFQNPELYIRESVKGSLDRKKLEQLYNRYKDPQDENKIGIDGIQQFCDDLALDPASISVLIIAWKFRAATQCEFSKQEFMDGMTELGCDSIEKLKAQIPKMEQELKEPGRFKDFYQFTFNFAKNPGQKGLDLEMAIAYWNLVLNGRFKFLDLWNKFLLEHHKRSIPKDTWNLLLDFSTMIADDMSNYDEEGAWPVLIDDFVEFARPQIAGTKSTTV
Protocol: as §1, §2, §3

[13] = biological target: T7, PDIA6 C190 (Q15084) (Homo sapiens, UniProt Q15084); experiment: Competitive isoTOP-ABPP, cell lysates; type: binding; details: 500 μm, in-vitro_ramos_231;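 note: Heavy/light ratio DMSO over fragment-treated so higher means more cysteine engagement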
T7 sequence (Q15084 20-440): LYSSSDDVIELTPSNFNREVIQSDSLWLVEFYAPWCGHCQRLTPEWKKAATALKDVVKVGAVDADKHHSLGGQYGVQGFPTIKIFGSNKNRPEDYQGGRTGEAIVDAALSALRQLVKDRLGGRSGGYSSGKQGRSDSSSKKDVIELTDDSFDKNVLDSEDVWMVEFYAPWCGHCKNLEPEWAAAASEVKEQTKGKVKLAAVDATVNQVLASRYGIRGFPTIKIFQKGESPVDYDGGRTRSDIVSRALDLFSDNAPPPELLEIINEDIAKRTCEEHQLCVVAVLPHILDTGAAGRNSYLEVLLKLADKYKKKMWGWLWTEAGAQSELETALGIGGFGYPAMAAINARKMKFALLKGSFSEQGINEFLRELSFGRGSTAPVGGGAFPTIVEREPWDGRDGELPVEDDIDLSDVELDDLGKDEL
Protocol: as §1, §2, §3

[14] = biological target: T8, PDIA6 C55 (Q15084) (Homo sapiens, UniProt Q15084); experiment: Competitive isoTOP-ABPP, cell lysates; type: binding; details: 500 μm, in-vitro_ramos_231
T8 sequence (Q15084 20-440): T7 sequence (Q15084 20-440)
Protocol: as §1, §2, §3

[15] = biological target: GSTP1 C48 (P09211) (Homo sapiens, UniProt P09211); experiment: Competitive isoTOP-ABPP, cell lysates; type: binding; details: 500 μm, in-vitro_ramos_231;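 note: Heavy/light ratio DMSO over fragment-treated so higher means more cysteine engagement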
GSTP1 C48 (P09211), sequence (P09211 whole entry, the tested form may be a part): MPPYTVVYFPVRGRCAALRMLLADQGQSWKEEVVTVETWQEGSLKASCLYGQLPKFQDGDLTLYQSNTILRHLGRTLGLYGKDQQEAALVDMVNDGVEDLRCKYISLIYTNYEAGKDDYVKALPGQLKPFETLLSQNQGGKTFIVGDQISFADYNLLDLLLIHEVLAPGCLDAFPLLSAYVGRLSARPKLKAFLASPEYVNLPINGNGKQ
Protocol: as §1, §2, §3

[16] = biological target: PRMT1 C109 (Q99873) (Homo sapiens, UniProt Q99873); experiment: Competitive isoTOP-ABPP, cell lysates; type: binding; details: 500 μm, in-vitro_ramos_231;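 note: Heavy/light ratio DMSO over fragment-treated so higher means more cysteine engagement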
PRMT1 C109 (Q99873), sequence (Q99873 whole entry, the tested form may be a part): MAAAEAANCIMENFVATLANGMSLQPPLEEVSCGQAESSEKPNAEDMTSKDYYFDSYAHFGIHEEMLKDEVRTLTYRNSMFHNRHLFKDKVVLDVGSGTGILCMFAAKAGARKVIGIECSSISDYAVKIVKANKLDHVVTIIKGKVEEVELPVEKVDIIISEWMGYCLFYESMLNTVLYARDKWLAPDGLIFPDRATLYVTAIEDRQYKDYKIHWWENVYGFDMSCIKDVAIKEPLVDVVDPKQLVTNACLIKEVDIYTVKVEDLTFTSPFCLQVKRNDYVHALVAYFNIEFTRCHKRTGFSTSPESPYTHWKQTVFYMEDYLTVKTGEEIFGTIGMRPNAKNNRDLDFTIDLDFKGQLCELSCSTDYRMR
Protocol: as §1, §2, §3

[17] = biological target: IDH1 C269 (O75874) (Homo sapiens, UniProt O75874); experiment: Competitive isoTOP-ABPP, cell lysates; type: binding; details: 500 μm, in-vitro_ramos_231
IDH1 C269 (O75874), sequence (O75874 whole entry): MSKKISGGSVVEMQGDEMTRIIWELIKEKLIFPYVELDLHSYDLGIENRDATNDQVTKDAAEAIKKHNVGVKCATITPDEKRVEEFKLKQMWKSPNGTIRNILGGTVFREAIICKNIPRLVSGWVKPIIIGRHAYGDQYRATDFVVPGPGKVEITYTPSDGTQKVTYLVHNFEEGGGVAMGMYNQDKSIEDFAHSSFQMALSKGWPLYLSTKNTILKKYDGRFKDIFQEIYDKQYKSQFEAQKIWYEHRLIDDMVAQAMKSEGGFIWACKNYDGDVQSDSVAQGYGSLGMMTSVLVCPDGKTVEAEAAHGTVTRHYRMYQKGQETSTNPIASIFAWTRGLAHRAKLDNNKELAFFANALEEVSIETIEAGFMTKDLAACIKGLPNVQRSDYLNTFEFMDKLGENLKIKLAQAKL
Protocol: as §1, §2, §3

## Nc1ncnc2c1ncn2[C@@H]1O[C@H](COP(=O)(O)O)[C@@H](O)[C@H]1O [AMP]
[1]
  inhibition of 18 labeling of IMPDH2 by nucleotides: inhibited

## C#CCCCCNC(=O)c1cc(NC(=O)CCl)cc(C(F)(F)F)c1 [compound 19]
[2]
  percentage of quantified protein targets sensitive to heat denaturation: 64%

## C#Cc1cccc(C(=O)N2CCC(N(C(=O)CCl)c3ccccc3)CC2)c1 [compound 61]
[3]
  direct labeling of pro-CASP8 by click probe: strongly labeled
[4]; Jurkat cell lysates
  R value for direct labeling of C360 (10 versus 100 μM probe): 2

## Cc1ncc(CO)c(CNC(=O)CCl)c1O [compound 54]
[5]
  isoTOP-ABPP reactivity profile ratio, P24752_C413: 1.1
[6]
  isoTOP-ABPP reactivity profile ratio, P24752_C119: 1.0
[7]
  isoTOP-ABPP reactivity profile ratio, P24752_C196: 1.1
[8]
  isoTOP-ABPP reactivity profile ratio, P24752_C126: 1.1
[9]
  isoTOP-ABPP reactivity profile ratio, Q9NYL2_C22: 1.1
[10]
  isoTOP-ABPP reactivity profile ratio, O14980_C34: 1.1
[11]
  isoTOP-ABPP reactivity profile ratio, P40763_C259: 1.3
[12]
  isoTOP-ABPP reactivity profile ratio, Q96GG9_C115: 1.1
[13]
  isoTOP-ABPP reactivity profile ratio, Q15084_C190: 1.2
[14]
  isoTOP-ABPP reactivity profile ratio, Q15084_C55: 1.2
[15]
  isoTOP-ABPP reactivity profile ratio, P09211_C48: 1.3
[16]
  isoTOP-ABPP reactivity profile ratio, Q99873_C109: 1.2
[17]
  isoTOP-ABPP reactivity profile ratio, O75874_C269: 1.1
[4]; 500 μm, in-vitro_ramos_231
  isoTOP-ABPP reactivity profile ratio, Q14790_C360: 1.2
